Results from US10266544B2, “Aryl substituted aminomethyl spectinomycin analogs as antibacterial agents” (ST. JUDE CHILDREN'S RESEARCH HOSPITAL, INC., priority 2013, dated 2019).
Counter-ions that a name gives are not always drawn. Like-named read-outs stand apart in the source and are kept apart here.

Key:
Type in all cases: cell-based
[1] = system: Bacillus anthracis, Sterne 34F2; test: microbe, parasite or virus in culture; conditions: STERNE34F2, read-out: MIC B.a.
[2] = system: Bacillus subtilis (ATCC 23857); test: MIC determination, microbroth dilution; conditions: ATCC23857; Bacillus subtilis (ATCC 23857); read-out: MIC B.s.
[3] = system: Enterococcus faecalis (ATCC 33186); test: MIC determination, microbroth dilution
[4] = system: Staphylococcus aureus (ATCC 29213); test: MIC determination, microbroth dilution; conditions: ATCC29213; Staphylococcus aureus (ATCC 29213); read-out: MIC S.a.
[5] = system: MRSA, Staphylococcus aureus (NRS70); test: MIC determination, microbroth dilution; conditions: Staphylococcus aureus (NRS70); read-out: MIC MRSA
[6] = system: Streptococcus pneumoniae (R6); test: MIC determination, microbroth dilution; conditions: Streptococcus pneumoniae (R6); read-out: MIC S. pn.
[7] = system: Streptococcus pyogenes (ATCC 700294); test: MIC determination, microbroth dilution
[8] = system: acinetobacter baumannii (ATCC 19606); test: MIC determination, microbroth dilution; conditions: ATCC19606
[9] = system: Burkholderia cepacia (ATCC 25416); test: MIC determination, microbroth dilution; conditions: Burkholderia cepacia
[10] = system: Escherichia coli (ATCC 700926); test: MIC determination, microbroth dilution; conditions: ATCC700926; Escherichia coli (ATCC 700926); read-out: MIC E.c.
[11] = system: E. coli K12 ΔtolC; test: microbe, parasite or virus in culture; conditions: Escherichia coli, read-out: MIC E.c. Δtolc
[12] = system: Klebsiella pneumoniae (ATCC 33495); test: MIC determination, microbroth dilution; conditions: ATCC33495
[13] = system: Pseudomonas aeruginosa (PA01); test: MIC determination, microbroth dilution
[14] = system: Proteus mirabilis (ATCC 25933); test: MIC determination, microbroth dilution; conditions: ATCC25933
[15] = system: Proteus vulgaris (ATCC 33420); test: MIC determination, microbroth dilution; conditions: ATCC33420
[16] = system: Stenotrophomonas maltophilia (ATCC 13637); test: MIC determination, microbroth dilution
[17] = system: Haemophilus influenza (ATCC 49247); test: microbe, parasite or virus in culture; conditions: ATCC49247; Haemophilus influenza; 4 μg per disc; range of at least two experiments; read-out: Zone of inhibition H.i.
[18] = system: Legionella pneumophila (ATCC 33153); test: microbe, parasite or virus in culture; conditions: ATCC33153, 72 h, read-out: Zone of inhibition L.p.
[19] = system: Neisseria meningitides (ATCC 13077); test: Disc diffusion assay; conditions: ATCC13077, 4 μg per disc, read-out: Zone of inhibition N.m.
[20] = system: Neisseria gonorrhoeae (ATCC 49226); test: Disc diffusion assay; conditions: ATCC49226, 4 μg per disc, read-out: Zone of inhibition N.g.
[21] = system: Neisseria gonorrhoeae (ATCC 49226); test: Agar MIC determination (Alamar Blue)
[22] = system: Bacillus anthracis; test: microbe, parasite or virus in culture; conditions: read-out: MIC B.a.
[23] = system: M. tuberculosis clinical isolates; test: microbe, parasite or virus in culture; conditions: Mycobacterium tuberculosis, H37RV, read-out: MIC H37Rv
[24] = system: Listeria monocytogenes; test: MIC determination (Table 6)
[25] = system: Moraxella catarrhalis; test: MIC determination (Table 6)
[26] = ATCC700294, Streptococcus pyogenes (ATCC 700294), read-out: MIC S. py.
[27] = ATCC25416, read-out: MIC B.c., Burkholderia cepacia (ATCC 25416)
[28] = ATCC25416, read-out: MIC B.c., Burkholderia cepacia, Table 6
[29] = Stenotrophomonas maltophilia, ATCC13637, read-out: MIC S.m.
[30] = ATCC33186, Enterococcus faecalis (ATCC 33186), read-out: MIC E.f.
[31] = ATCC49226, agar MIC, read-out: MIC N.g.
[32] = ATCC13637, Stenotrophomonas maltophilia (ATCC 13637), read-out: MIC S.m.

## CN[C@@H]1[C@H](O)[C@H](NC)[C@H]2O[C@]3(O)[C@H](O[C@@H]2[C@H]1O)O[C@H](C)C[C@@]3(O)CNCc1ccc(Cl)s1 [compound 21, 3′-(A′)-3′-[(5-Chloro)-2-thiophenylmethylaminomethyl)dihydrospectinomycin Trihydrobromide]
[1]
  MIC: 50 µg/mL
[2]
  MIC: 25 to 50 µg/mL
[3]; Enterococcus faecalis, ATCC33186, read-out: MIC E.f.
  MIC: 12.5 µg/mL
[4]
  MIC: 25 to 50 µg/mL
[5]
  MIC: 200 µg/mL
[6]
  MIC: 3.1 µg/mL
[7]; [26]
  MIC: 1.6 µg/mL
[8]
  MIC: > 200 µg/mL
[9]; [27]
  MIC: 200 µg/mL
[9]; [28]
  MIC: 200 µg/mL
[10]
  MIC: 50 µg/mL
[11]
  MIC: 12.5 µg/mL
[12]
  MIC: > 200 µg/mL
[13]
  MIC: > 200 µg/mL
[14]
  MIC: > 200 µg/mL
[15]
  MIC: ≥ 200 µg/mL
[16]; [29]
  MIC: 12.5 µg/mL
[17]
  zone of inhibition at 4 µg/disc: 13 mm
[18]
  zone of inhibition at 4 µg/disc: 22 mm
[19]
  zone of inhibition at 4 µg/disc: 19 mm
[20]
  zone of inhibition at 4 µg/disc: 20 mm
[21]; ATCC49226, read-out: MIC N.g.
  MIC: 12.5 to 25 µg/mL
[22]
  MIC: 50 µg/mL
[23]
  MIC: 100 µg/mL
[24]
  MIC: 6.3 µg/mL
[25]
  MIC: 0.8 µg/mL

## CN[C@@H]1[C@H](O)[C@H](NC)[C@H]2O[C@]3(O)[C@H](O[C@@H]2[C@H]1O)O[C@H](C)C[C@@]3(O)CNCc1ccco1 [compound 8, 3′-(R)-3′-(2-furanylmethylaminomethyl)dihydrospectinomycin Trihydrochloride]
[1]
  MIC: 50 µg/mL
[2]
  MIC: 12.5 µg/mL
[3]; [30]
  MIC: 50 µg/mL
[4]
  MIC: 50 µg/mL
[5]
  MIC: 200 µg/mL
[6]
  MIC: 12.5 µg/mL
[7]; [26]
  MIC: 12.5 to 25 µg/mL
[8]
  MIC: ≥ 200 µg/mL
[9]; [27]
  MIC: ≥ 200 µg/mL
[9]; [28]
  MIC: ≥ 200 µg/mL
[10]
  MIC: 50 µg/mL
[11]
  MIC: 6.3 to 12.5 µg/mL
[12]
  MIC: 200 µg/mL
[13]
  MIC: 200 µg/mL
[14]
  MIC: > 200 µg/mL
[15]
  MIC: > 200 µg/mL
[16]; [29]
  MIC: 6.3 to 12.5 µg/mL
[17]
  zone of inhibition at 4 µg/disc: 9 mm
[18]
  zone of inhibition at 4 µg/disc: 41 mm
[19]
  zone of inhibition at 4 µg/disc: 10 mm
[20]
  zone of inhibition at 4 µg/disc: 8 mm
[21]; [31]
  MIC: 50 µg/mL
[22]
  MIC: 100 µg/mL
[23]
  MIC: 25 µg/mL
[24]
  MIC: 25 µg/mL
[25]
  MIC: 6.3 µg/mL

## CN[C@@H]1[C@H](O)[C@H](NC)[C@H]2O[C@]3(O)[C@H](O[C@@H]2[C@H]1O)O[C@H](C)C[C@@]3(O)CNCc1nccs1 [compound 19, 3′-(R)-3′-(2-thiazolylmethyl)aminomethyldihydrospectinomycin Tetrahydrobromide]
[1]
  MIC: 100 µg/mL
[2]
  MIC: 100 µg/mL
[3]; [30]
  MIC: 50 µg/mL
[4]
  MIC: 100 µg/mL
[5]
  MIC: > 200 µg/mL
[6]
  MIC: 12.5 µg/mL
[7]; [26]
  MIC: 12.5 µg/mL
[8]
  MIC: > 200 µg/mL
[9]; [27]
  MIC: > 200 µg/mL
[9]; [28]
  MIC: > 200 µg/mL
[10]
  MIC: 200 µg/mL
[11]
  MIC: 12.5 to 25 µg/mL
[12]
  MIC: > 200 µg/mL
[13]
  MIC: > 200 µg/mL
[14]
  MIC: > 200 µg/mL
[15]
  MIC: > 200 µg/mL
[16]; [32]
  MIC: 25 to 50 µg/mL
[17]
  zone of inhibition at 4 µg/disc: 10 mm
[18]
  zone of inhibition at 4 µg/disc: 39 mm
[19]
  zone of inhibition at 4 µg/disc: 13 mm
[20]
  zone of inhibition at 4 µg/disc: 9 mm
[21]; [31]
  MIC: 100 µg/mL
[22]
  MIC: 100 µg/mL
[23]
  MIC: 100 µg/mL
[24]
  MIC: 25 µg/mL
[25]
  MIC: 12.5 µg/mL

## CN[C@@H]1[C@H](O)[C@H](NC)[C@H]2O[C@]3(O)[C@H](O[C@@H]2[C@H]1O)O[C@H](C)C[C@@]3(O)CNCc1ccncc1 [compound 9, 3′-(R)-3′-(4-pyridinylmethylaminomethyl)dihydrospectinomycin Tetrahydrobromide]
[1]
  MIC: 100 to 200 µg/mL
[2]
  MIC: 200 µg/mL
[3]; [30]
  MIC: > 200 µg/mL
[4]
  MIC: ≥ 200 µg/mL
[5]
  MIC: ≥ 200 µg/mL
[6]
  MIC: 25 to 50 µg/mL
[7]; [26]
  MIC: 25 to 50 µg/mL
[8]
  MIC: ≥ 200 µg/mL
[9]; [27]
  MIC: > 200 µg/mL
[9]; [28]
  MIC: > 200 µg/mL
[10]
  MIC: 50 µg/mL
[11]
  MIC: 12.5 µg/mL
[12]
  MIC: > 200 µg/mL
[13]
  MIC: ≥ 200 µg/mL
[14]
  MIC: > 200 µg/mL
[15]
  MIC: > 200 µg/mL
[16]; [32]
  MIC: 200 µg/mL
[17]
  zone of inhibition at 4 µg/disc: 8 mm
[18]
  zone of inhibition at 4 µg/disc: 28 mm
[19]
  zone of inhibition at 4 µg/disc: 6 mm
[20]
  zone of inhibition at 4 µg/disc: 6 mm
[21]; [31]
  MIC: ≥ 200 µg/mL
[22]
  MIC: 100 to 200 µg/mL
[23]
  MIC: 200 µg/mL
[24]
  MIC: 100 µg/mL
[25]
  MIC: 12.5 µg/mL

## CN[C@@H]1[C@H](O)[C@H](NC)[C@H]2O[C@]3(O)[C@H](O[C@@H]2[C@H]1O)O[C@H](C)C[C@@]3(O)CNCc1cccs1 [compound 17, 3′-(R)-3′-(2-thiophenylmethylaminomethyl)dihydrospectinomycin Trihydrochloride]
[1]
  MIC: 50 µg/mL
[2]
  MIC: 25 µg/mL
[3]; [30]
  MIC: 50 µg/mL
[4]
  MIC: 50 µg/mL
[5]
  MIC: 100 to 200 µg/mL
[6]
  MIC: 12.5 µg/mL
[7]; Streptococcus pyogenes, ATCC700294, read-out: MIC S. py.
  MIC: 6.3 to 12.5 µg/mL
[8]
  MIC: > 200 µg/mL
[9]; [27]
  MIC: > 200 µg/mL
[9]; [28]
  MIC: > 200 µg/mL
[10]
  MIC: 50 µg/mL
[11]
  MIC: 6.3 to 12.5 µg/mL
[12]
  MIC: 200 µg/mL
[13]
  MIC: ≥ 200 µg/mL
[14]
  MIC: > 200 µg/mL
[15]
  MIC: 200 µg/mL
[16]; [32]
  MIC: 6.3 µg/mL
[17]
  zone of inhibition at 4 µg/disc: 13 mm
[18]
  zone of inhibition at 4 µg/disc: 41 mm
[19]
  zone of inhibition at 4 µg/disc: 15 mm
[20]
  zone of inhibition at 4 µg/disc: 11 mm
[21]; [31]
  MIC: 50 µg/mL
[22]
  MIC: 50 µg/mL
[23]
  MIC: 25 µg/mL
[24]
  MIC: 12.5 µg/mL
[25]
  MIC: 3.1 µg/mL
